Measured values from ChEMBL document CHEMBL1255203 (Bioorg Med Chem Lett, 2010).

What was measured:
Format in all cases: ADME
[1] = molecular target: T1, Cytochrome P450 1A2 (Homo sapiens, UniProt P05177); assay: Inhibition of human CYP1A2
T1 sequence (P05177 whole entry): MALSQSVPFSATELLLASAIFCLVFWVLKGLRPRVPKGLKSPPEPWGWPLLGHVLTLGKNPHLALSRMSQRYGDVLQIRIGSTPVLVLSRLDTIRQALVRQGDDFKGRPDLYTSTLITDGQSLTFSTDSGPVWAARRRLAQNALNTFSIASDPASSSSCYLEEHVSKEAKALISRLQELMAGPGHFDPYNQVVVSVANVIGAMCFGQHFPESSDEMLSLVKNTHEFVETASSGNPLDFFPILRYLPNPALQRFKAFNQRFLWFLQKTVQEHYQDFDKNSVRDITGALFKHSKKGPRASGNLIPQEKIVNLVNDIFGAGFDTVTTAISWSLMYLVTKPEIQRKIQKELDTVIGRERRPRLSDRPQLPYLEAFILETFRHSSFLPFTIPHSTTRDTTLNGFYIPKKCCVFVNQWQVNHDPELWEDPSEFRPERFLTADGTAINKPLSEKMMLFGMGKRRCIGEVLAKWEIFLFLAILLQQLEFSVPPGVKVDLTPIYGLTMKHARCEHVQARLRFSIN

[2] = molecular target: Cytochrome P450 2D6 (Homo sapiens, UniProt P10635); assay: Inhibition of human CYP2D6
[3] = molecular target: Cytochrome P450 3A4 (Homo sapiens, UniProt P08684); assay: Inhibition of human CYP3A4
[4] = molecular target: Cytochrome P450 2C9 (Homo sapiens, UniProt P11712); assay: Inhibition of human CYP2C9
Cytochrome P450 2C9, sequence (P11712 whole entry): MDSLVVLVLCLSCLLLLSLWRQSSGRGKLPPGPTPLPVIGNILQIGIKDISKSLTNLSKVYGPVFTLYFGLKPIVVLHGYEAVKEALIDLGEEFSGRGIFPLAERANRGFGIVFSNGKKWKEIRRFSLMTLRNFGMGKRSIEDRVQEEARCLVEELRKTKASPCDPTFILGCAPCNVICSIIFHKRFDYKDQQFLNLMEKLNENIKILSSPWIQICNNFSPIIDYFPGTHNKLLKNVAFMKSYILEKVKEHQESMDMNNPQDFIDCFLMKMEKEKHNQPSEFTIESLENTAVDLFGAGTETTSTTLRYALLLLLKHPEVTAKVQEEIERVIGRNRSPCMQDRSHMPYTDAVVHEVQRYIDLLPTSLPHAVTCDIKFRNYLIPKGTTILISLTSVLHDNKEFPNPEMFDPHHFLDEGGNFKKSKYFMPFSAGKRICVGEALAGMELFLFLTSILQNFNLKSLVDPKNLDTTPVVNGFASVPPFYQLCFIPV

Cytochrome P450 2D6, sequence (P10635 whole entry): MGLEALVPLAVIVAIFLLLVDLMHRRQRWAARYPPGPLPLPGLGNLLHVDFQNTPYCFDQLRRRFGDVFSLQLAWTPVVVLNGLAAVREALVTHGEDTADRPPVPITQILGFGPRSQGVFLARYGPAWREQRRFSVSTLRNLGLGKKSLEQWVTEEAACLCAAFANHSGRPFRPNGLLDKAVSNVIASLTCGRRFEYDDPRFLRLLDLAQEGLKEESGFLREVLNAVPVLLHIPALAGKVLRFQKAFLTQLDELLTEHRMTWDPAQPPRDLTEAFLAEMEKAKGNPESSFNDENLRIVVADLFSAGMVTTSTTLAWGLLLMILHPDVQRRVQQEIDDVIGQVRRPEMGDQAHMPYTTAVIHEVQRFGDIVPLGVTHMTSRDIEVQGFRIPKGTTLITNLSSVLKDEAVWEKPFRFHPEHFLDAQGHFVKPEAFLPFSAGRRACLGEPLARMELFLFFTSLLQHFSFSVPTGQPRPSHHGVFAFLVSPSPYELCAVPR
Cytochrome P450 3A4, sequence (P08684 whole entry): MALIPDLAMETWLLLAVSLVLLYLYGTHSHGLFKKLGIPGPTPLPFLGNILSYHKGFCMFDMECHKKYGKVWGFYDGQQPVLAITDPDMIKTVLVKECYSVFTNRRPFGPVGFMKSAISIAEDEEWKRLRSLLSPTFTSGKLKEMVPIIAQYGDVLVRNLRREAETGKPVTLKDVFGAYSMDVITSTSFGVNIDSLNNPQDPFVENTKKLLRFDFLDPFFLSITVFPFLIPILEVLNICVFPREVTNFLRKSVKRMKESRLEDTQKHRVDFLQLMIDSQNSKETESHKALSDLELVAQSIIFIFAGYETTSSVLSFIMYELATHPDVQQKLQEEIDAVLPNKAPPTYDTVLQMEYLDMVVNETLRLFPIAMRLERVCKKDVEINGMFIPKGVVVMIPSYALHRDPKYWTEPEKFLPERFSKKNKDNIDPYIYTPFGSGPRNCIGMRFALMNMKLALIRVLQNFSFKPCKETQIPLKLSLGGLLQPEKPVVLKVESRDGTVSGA

| SMILES | IC50 [1] [µM] | IC50 [2] [µM] | IC50 [3] [µM] | IC50 [4] [µM] |
| --- | --- | --- | --- | --- |
| O=c1cc(-c2ccccc2)oc2cc(O)ccc12 [7-HYDROXYFLAVONE] | 0.24 | – | – | – |
| O=c1cc(-c2ccccc2)oc2cc(O)cc(O)c12 [CHRYSIN] | – | > 50 | > 50 | 5.23 |
